Source: ChEMBL document CHEMBL2163345, “Part II. Development of novel colchicine-derived immunosuppressants with improved pharmacokinetic properties” (Bioorg Med Chem Lett, 2012)
pIC50: −log10 of the molar value. ≈ marks a conversion by molar mass, not a printed value. One block for each compound: values may come before it. Calls of active or inactive are those of the source. The rule behind the calls is not given here.

Key:
[1] = system: Splenocyte; experiment: Immunosuppressant activity in mouse splenocytes by mixed-leukocyte reaction assay; type: functional, cell-based; details: for pIC50: Mus musculus, Splenocyte, read-out: IC50; for IC50: splenocyte
[2] = Immunosuppressant activity in chicken T-lymphocyte activated splenic lymphocytes assessed as inhibition of ConA-induced cell proliferation by [3H]thymidine incorporation assay; type: functional; details: Gallus gallus
[3] = Immunosuppressant activity in chicken B-lymphocyte activated splenic lymphocytes assessed as inhibition of LPS-induced cell proliferation by [3H]thymidine incorporation assay; type: functional; details: Gallus gallus
[4] = Solubility of the compound in presence of 20% serum; type: physicochemical
[5] = AUC (0 to infinity) in BALB/c mouse at 1 mg/kg, po; type: ADME, organism-based; parameters: time infinity, dose 1 mg/kg, route oral; details: plasma
[6] = Oral bioavailability in BALB/c mouse at 1 mg/kg; type: ADME, organism-based; details: in vivo
[7] = Cmax in BALB/c mouse at 1 mg/kg, po; type: ADME, organism-based; parameters: dose 1 mg/kg, route oral; details: in vivo
[8] = system: T-cell; experiment: Antiproliferative activity against ConA-induced T cells; type: functional, cell-based
[9] = Half life in BALB/c mouse at 1 mg/kg, po; type: ADME, organism-based; parameters: dose 1 mg/kg, route oral; details: in vivo
[10] = Volume of distribution at steady state in BALB/c mouse at 0.5 mg/kg, iv; type: ADME, organism-based; parameters: dose 0.5 mg/kg, route intravenous; details: in vivo, read-out: Vdss
[11] = system: B-cell; experiment: Antiproliferative activity against LPS-induced B cells; type: functional, cell-based
[12] = system: Mus musculus; experiment: Immunosuppressant activity in C57BL/6 mouse assessed as inhibition of carrageenan-induced paw edema; type: functional, organism-based
[13] = Half life in BALB/c mouse at 0.5 mg/kg, iv; type: ADME, organism-based; parameters: dose 0.5 mg/kg, route intravenous; details: in vivo
[14] = AUC (0 to infinity) in BALB/c mouse at 0.5 mg/kg, iv; type: ADME, organism-based; parameters: time infinity, dose 0.5 mg/kg, route intravenous; details: plasma
[15] = Antiproliferative activity against B cells; type: cell-based; details: b-cell
[16] = Tmax in BALB/c mouse at 1 mg/kg, po; type: ADME, organism-based; parameters: dose 1 mg/kg, route oral; details: in vivo
[17] = species on record: Mus musculus; experiment: Immunosuppressant activity in C57BL/6 mouse assessed as inhibition of DNCB-induced cytokine release by local lymph node assay; type: functional, organism-based
[18] = Antiproliferative activity against T cells; type: cell-based; details: t-cell
[19] = system: BMDM; experiment: Antiproliferative activity against LPS-induced BMDM cells; type: functional, cell-based
[20] = species on record: Mus musculus; experiment: Immunosuppressant activity in C57BL/6 mouse assessed as inhibition of zymosan A-induced arthritis; type: functional, organism-based
[21] = Clearance in BALB/c mouse at 0.5 mg/kg, iv; type: ADME, organism-based; parameters: dose 0.5 mg/kg, route intravenous; details: in vivo
[22] = Mean residence time (infinity) in BALB/c mouse at 1 mg/kg, po; type: ADME, organism-based; parameters: dose 1 mg/kg, route oral; details: in vivo
[23] = Antiproliferative activity against BMDM cells; type: cell-based
[24] = system: Dendritic cell; experiment: Antiproliferative activity against LPS-induced bone marrow-derived dendritic cells; type: functional, cell-based
[25] = Antiproliferative activity against bone marrow-derived dendritic cells; type: cell-based; details: dendritic cell
[26] = Mean residence time (infinity) in BALB/c mouse at 0.5 mg/kg, iv; type: ADME, organism-based; parameters: dose 0.5 mg/kg, route intravenous; details: in vivo

Compound: C/C=C/C(=O)N[C@H]1CCc2cc(OC)c(OC)c(OC)c2-c2ccc(SC)c(=O)cc21
pIC50 [1]: 7.17

Compound: COc1cc2c(c(OC)c1OC)-c1ccc(SC)c(=O)cc1[C@@H](NC(=O)C1NC1C)CC2 (stereo not given in full)
pIC50 [1]: 7.34

Compound: COc1cc2c(c(OC)c1OC)-c1ccc(SC)c(=O)cc1[C@@H](NC(=O)C1OC1C)CC2 (mixture of isomers)
pIC50 [1]: 6.92

Compound: COc1cc2c(c(OC)c1OC)-c1ccc(SC)c(=O)cc1[C@@H](NC(=O)c1cccc(CO[N+](=O)[O-])c1)CC2
solubility [4]: 10 µM

Compound: C=CC(=C)C(=O)N[C@H]1CCc2cc(OC)c(OC)c(OC)c2-c2ccc(SC)c(=O)cc21
pIC50 [1]: 6.95

Compound: COc1cc2c(c(OC)c1OC)-c1ccc(SC)c(=O)cc1[C@@H](NC(=O)C1C(C)N1C)CC2 (stereo not given in full)
pIC50 [1]: 7.42

Compound: COc1cc2c(c(OC)c1OC)-c1ccc(SC)c(=O)cc1[C@H](NC(=O)C1CC1C)CC2 (stereo not given in full)
IC50 [1]: Not Active

Compound: COc1cc2c(c(OC)c1OC)-c1ccc(OC)c(=O)cc1[C@@H](NC(C)=O)CC2 [COLCHICINE]
solubility [4]: 300 µM

Now from value to compound, other results behind:

pIC50 [1]: 6.15
Compound: C=CCC(=O)N[C@H]1CCc2cc(OC)c(OC)c(OC)c2-c2ccc(SC)c(=O)cc21

pIC50 [1]: 8.40
Compound: C/C=C/C=C/C(=O)N[C@H]1CCc2cc(OC)c(OC)c(OC)c2-c2ccc(SC)c(=O)cc21
IC50 [2]: 0.0407 µg/mL (≈ 0.087 µM)
IC50 [3]: 0.0057 µg/mL (≈ 0.0122 µM)

solubility [4]: 100 µM
Compound: COc1cc2c(c(OC)c1OC)-c1ccc(SC)c(=O)cc1[C@@H](NC(=O)CCCO[N+](=O)[O-])CC2

IC50 [1]: Not Active
Compound: COc1cc2c(c(OC)c1OC)-c1cccc(=O)cc1[C@@H](NC(=O)C1CC1C)CC2 (stereo not given in full)

IC50 [1]: Not Active
Compound: COc1cc2c(c(OC)c1OC)-c1ccc([S+](C)[O-])c(=O)cc1[C@@H](NC(=O)C1CC1C)CC2 (stereo not given in full)

pIC50 [1]: 7.51
Compound: C=C(C)/C=C(\CC)C(=O)N[C@H]1CCc2cc(OC)c(OC)c(OC)c2-c2ccc(SC)c(=O)cc21

pIC50 [1]: 5.78
Compound: C/C=C/CC(=O)N[C@H]1CCc2cc(OC)c(OC)c(OC)c2-c2ccc(SC)c(=O)cc21

IC50 [1]: Not Active
Compound: COc1cc2c(c(OC)c1OC)-c1ccc(S(C)(=O)=O)c(=O)cc1[C@@H](NC(=O)C1CC1C)CC2 (stereo not given in full)

AUC(0-inf) [5]: 269 ng·h/mL
bioavailability [6]: 67.3%
Cmax [7]: 254 ng/mL
half-life [9]: 2.9 h
Vd [10]: 1.6 L/kg
half-life [13]: 2.9 h
AUC(0-inf) [14]: 200 ng·h/mL
Tmax [16]: 0.25 h
clearance [21]: 41.7 mL/min/kg
MRT inf [22]: 2.2 h
pIC50 [1]: 8.30
MRT inf [26]: 0.6 h
Compound: COc1cc2c(c(OC)c1OC)-c1ccc(SC)c(=O)cc1[C@@H](NC(=O)C1CC1C)CC2 (stereo not given in full)
Activity [8]: Active
Activity [11]: Active
inhibition [12]: Dose-dependent effect
Activity [15]: Non-toxic
IC50 [2]: 0.031 µg/mL (≈ 0.068 µM)
inhibition [17]: Active
Activity [18]: Non-toxic
Activity [19]: Active
inhibition [20]: Dose-dependent effect
IC50 [3]: 0.0059 µg/mL (≈ 0.013 µM)
Activity [23]: Non-toxic
Activity [24]: Active
Activity [25]: Non-toxic

pIC50 [1]: 5.90
Compound: COc1cc2c(c(OC)c1OC)-c1ccc(OC)c(=O)cc1[C@@H](NC(=O)C1CC1C)CC2 (stereo not given in full)

pIC50 [1]: 7.07
Compound: C=C(CC)C(=O)N[C@H]1CCc2cc(OC)c(OC)c(OC)c2-c2ccc(SC)c(=O)cc21
